Patent US6689754B1, “Heterocyclic glycyl β-alanine derivatives” (G. D. Searle & Co., priority 1998, dated 2004)
Counter-ions that a name gives are not always drawn.

What was measured:
[1] = biological target: T1, Human vitronectin receptor (αvβ3) (Homo sapiens, UniProt P05106+P06756); test: Vitronectin adhesion assay: solid phase receptor assay, competition with biotinylated vitronectin; format: binding; conditions: purified human vitronectin receptor; 1 nM biotinylated vitronectin
T1 construct: Human vitronectin receptor (αvβ3) was purified from human placenta; from tissue; host or cells: human placenta
Description: Vitronectin Adhesion Assay
Human vitronectin receptor (αvβ3) was purified from human placenta as previously described [Pytela et al., Methods in Enzymology, 144:475-489 (1987)]. Human vitronectin was purified from fresh frozen plasma as previously described [Yatohgo et al., Cell Structure and Function, 13:281-292 (1988)]. Biotinylated human vitronectin was prepared by coupling NHS-biotin from Pierce Chemical Company (Rockford, Ill.) to purified vitronectin as previously described [Charo et al., J. Biol. Chem., 266(3):1415-1421 (1991)]. Assay buffer, OPD substrate tablets, and RIA grade BSA were obtained from Sigma (St. Louis, Mo.). Anti-biotin antibody was obtained from Calbiochem (La Jolla, Calif.). Linbro microtiter plates were obtained from Flow Labs (McLean, Va.). ADP reagent was obtained from Sigma (St. Louis, Mo.).
This assay was essentially the same as previously reported [Niiya et al., Blood, 70:475-483 (1987)]. The purified human vitronectin receptor (αvβ3) was diluted from stock solutions to 1.0 μg/mL in Tris-buffered saline containing 1.0 mM Ca^++, Mg^++, and Mn^++, pH 7.4 (TBS^+++). The diluted receptor was immediately transferred to Linbro microtiter plates at 100 μL/well (100 ng receptor/well). The plates were sealed and incubated overnight at 4° C. to allow the receptor to bind to the wells. All remaining steps were at room temperature. The assay plates were emptied and 200 μL of 1% RIA grade BSA in TBS^+++ (TBS^+++/BSA) were added to block exposed plastic surfaces. Following a 2 hour incubation, the assay plates were washed with TBS^+++ using a 96 well plate washer. Logarithmic serial dilution of the test compound and controls were made starting at a stock concentration of 2 mM and using 2 nM biotinylated vitronectin in TBS^+++/BSA as the diluent. This premixing of labeled ligand with test (or control) ligand, and subsequent transfer of 50 μL aliquots to the assay plate was carried out with a CETUS Propette robot; the final concentration of the labeled ligand was 1 nM and the highest concentration of test compound was 1.0×10^−4 M. The competition occurred for two hours after which all wells were washed with a plate washer as before. Affinity purified horseradish peroxidase labeled goat anti-biotin antibody was diluted 1:3000 in TBS^+++/BSA and 125 μL were added to each well. After 30 minutes, the plates were washed and incubated with OPD/H2O2 substrate in 100 mM/L Citrate buffer, pH 5.0. The plate was read with a microtiter plate reader at a wavelength of 450 nm and when the maximum-binding control wells reached an absorbance of about 1.0, the final A450 were recorded for analysis. The data were analyzed using a macro written for use with the EXCELJ spreadsheet program. The mean, standard deviation, and % CV were determined for duplicate concentrations. The mean A450 values were normalized to the mean of four maximum-binding controls (no competitor added)(B-MAX). The normalized values were subjected to a four parameter curve fit algorithm [Rodbard et al., Int.

[2] = biological target: T2, Human fibrinogen receptor IIb/IIIa (Homo sapiens, UniProt P05106+P08514); test: Purified IIb/IIIa receptor assay: solid phase receptor assay, competition with biotinylated vitronectin; format: binding; conditions: 1 nM biotinylated vitronectin
T2 construct: Human fibrinogen receptor ([…]) was purified from outdated platelets; from tissue; host or cells: outdated human platelets
Text: Purified IIb/IIIa Receptor Assay
Human fibrinogen receptor ([…]) was purified from outdated platelets. (Pytela, R., Pierschbacher, M. D., Argraves, S., Suzuki, S., and Rouslahti, E. “Arginine-Glycine-Aspartic acid adhesion receptors”, Methods in Enzymology 144(1987):475-489.) Human vitronectin was purified from fresh frozen plasma as described in Yatohgo, T., Izumi, M., Kashiwagi, H., and Hayashi, M., “Novel purification of vitronectin from human plasma by heparin affinity chromatography,” Cell Structure and Function 13(1988):281-292. Biotinylated human vitronectin was prepared by coupling NHS-biotin from Pierce Chemical Company (Rockford, Ill.) to purified vitronectin as previously described. (Charo, I. F., Nannizzi, L., Phillips, D. R., Hsu, M. A., Scarborough, R. M., “Inhibition of fibrinogen binding to GP IIb/IIIa by a GP IIIa peptide”, J. Biol. Chem. 266(3)(1991): 1415-1421.) Assay buffer, OPD substrate tablets, and RIA grade BSA were obtained from Sigma (St. Louis, Mo.). Anti-biotin antibody was obtained from Calbiochem (La Jolla, Calif.). Linbro microtiter plates were obtained from Flow Labs (McLean, Vs.). ADP reagent was obtained from Sigma (St. Louis, Mo.).
This assay is essentially the same reported in Niiya, K., Hodson, E., Bader, R., Byers-Ward, V. Koziol, J. A., Plow, E. F. and Ruggeri, Z. M., “Increased surface expression of the membrane glycoprotein IIb/IIIa complex induced by platelet activation: Relationships to the binding of fibrinogen and platelet aggregation”, Blood 70(1987):475-483. The purified human fibrinogen receptor ([…]) was diluted from stock solutions to 1.0 μg/mL in Tris-buffered saline containing 1.0 mM Ca^++, Mg^++, and Mn^++, pH 7.4 (TBS^+++). The diluted receptor was immediately transferred to Linbro microtiter plates at 100 μL/well (100 ng receptor/well). The plates were sealed and incubated overnight at 4° C. to allow the receptor to bind to the wells. All remaining Steps were at room temperature. The assay plates were emptied and 200 μL of 1% RIA grade BSA in TBS^+++ (TBS^+++/BSA) were added to block exposed plastic surfaces. Following a 2 hour incubation, the assay plates were washed with TBS^+++ using a 96 well plate washer. Logarithmic serial dilution of the test compound and controls were made starting at a stock concentration of 2 mM and using 2 nM biotinylated vitronectin in TBS^+++/BSA as the diluent. This premixing of labeled ligand with test (or control) ligand, and subsequent transfer of 50 μL aliquots to the assay plate was carried out with a CETUS Propette robot; the final concentration of the labeled ligand was 1 nM and the highest concentration of test compound was 1.0×10^−4 M. The competition occurred for two hours after which all wells were washed with a plate washer as before. Affinity purified horseradish peroxidase labeled goat anti-biotin antibody was diluted 1:3000 in TBS^+++/BSA and 125 μL were added to each well. After 30 minutes, the plates were washed and incubated with […] substrate in 100 mM/L citrate buffer, pH 5.0. The plate was read with a microtiter plate reader at a wavelength of 450 nm and when the maximum-binding control wells reached an absorbance of about 1.0, the final A450 were recorded for analysis. The data were analyzed using a macro written for use with the EXCELJ spreadsheet program. The mean, standard deviation, and % CV were determined for duplicate concentrations. The mean A450 values were normalized to the mean of four maximum-binding controls (no competitor added)(B-MAX). The normalized values were subjected to a four parameter curve fit algorithm, [Robard et al., Int. Atomic Energy Agency.

SMILES	IC50 [1]	IC50 [2]
O=C(O)C[C@H](NC(=O)CNC(=O)c1c[nH]c(=O)c(NC2=NCCN2)c1)c1cc(Br)cc(Br)c1O [Example 36]	1.13 nM	970 nM
Cc1sc(C(=O)NCC(=O)N[C@@H](CC(=O)O)c2cc(Cl)cc(Cl)c2O)cc1NC1=NCC(O)CN1 (stereo partly drawn) [Example 14, (3S)-N-[[5-methyl-4-[(1,4,5,6-tetrahydro-5-hydroxy-2-pyrimidinyl)amino]-2-thienyl]carbonyl]glycyl-3-(3,5-dichloro-2-hydroxyphenyl)-β-alanine, trifluoroacetate salt]	12.4 nM	772 nM
O=C(O)C[C@H](NC(=O)CNC(=O)c1cc(=O)cc(NC2=NCC(O)CN2)[nH]1)c1cc(Cl)cc(Br)c1O (stereo partly drawn) [Example 31]	3940 nM	1800 nM
N=C(N)Nc1cncc(C(=O)NCC(=O)NC(CC(=O)O)c2cc(Cl)cc(Cl)c2O)c1 (stereo not drawn) [Example 2]	1.32 nM	272 nM
N=C(N)Nc1nc(C(=O)NCC(=O)NC(CC(=O)O)c2cccnc2)cs1 (stereo not drawn) [Example 8]	95.1 nM	857 nM
Cn1nc(C(=O)NCC(=O)NC(CC(=O)O)c2cc(Cl)cc(Cl)c2O)cc1NC1=NCCN1 (stereo not drawn) [Example 24, N-[[(4,5-dihydro-1H-imidazol-2-yl)amino]-1-methyl-1H-pyrazol-3yl]carbonyl]glycyl-3-(3,5-dichloro-2-hydroxyphenyl)-β-alanine, (trifluoroacetate) salt]	91200 nM	15800 nM
CC1(C)CN=C(Nc2cc(C(=O)NCC(=O)N[C@@H](CC(=O)O)c3cc(Cl)cc(Cl)c3O)c[nH]c2=O)NC1 [Example 47]	0.99 nM	6710 nM
COc1cc(NC2=NCC(O)CN2)nc(C(=O)NCC(=O)N[C@@H](CC(=O)O)c2cc(Cl)cc(Br)c2O)c1 (stereo partly drawn) [Example 30]	155 nM	29.5 nM
O=C(O)C[C@H](NC(=O)CNC(=O)c1cc(NC2=NCC(O)CN2)[nH]c(=O)c1)c1cc(Cl)cc(Br)c1O (stereo partly drawn) [Example 43]	6.5 nM	7530 nM
COCCN/C(N)=N/c1cc(C(=O)NCC(=O)N[C@@H](CC(=O)O)c2cc(Cl)cc(Cl)c2O)c[nH]c1=O [Example 46]	1.97 nM	2690 nM
O=C(O)C[C@H](NC(=O)CNC(=O)c1cscc1CNC1=NCC(O)CN1)c1cc(Cl)cc(Cl)c1O (stereo partly drawn) [Example 39]	1920 nM	2460 nM
Cc1sc(C(=O)NCC(=O)N[C@@H](CC(=O)O)c2cc(Cl)cc(Cl)c2O)cc1NC1=NCCN1 [Example 15, (3S)-N-[[4-(4,5,-dihydro-1H-imidazol-2-yl)amino]-5-methyl-2-thienyl]carbonyl]glycyl-3-(3,5-dichloro-2-hydroxyphenyl)-β-alanine, trifluoroacetate salt]	25.4 nM	1040 nM
O=C(O)CC(NC(=O)CNC(=O)c1cncc(NC2=NCC(O)CN2)c1)c1cc(Cl)cc(Br)c1O (stereo not drawn) [Example 32]	2.1 nM	49 nM
O=C(O)C[C@H](NC(=O)CNC(=O)c1sccc1CNC1=NCC(O)CN1)c1cc(Cl)cc(Cl)c1O (stereo partly drawn) [Example 45]	1090 nM	1680 nM

The next molecules have a lower IC50 [1] than those just listed; values first:

IC50 [1]	IC50 [2]	SMILES
0.2 nM	520 nM	O=C(O)C[C@H](NC(=O)CNC(=O)c1c[nH]c(=O)c(NC2=NCC(O)CN2)c1)c1cc(Cl)cc(Br)c1O (stereo partly drawn) [Example 33]
0.14 nM	340 nM	O=C(O)C[C@H](NC(=O)CNC(=O)c1c[nH]c(=O)c(NC2=NCC(O)CN2)c1)c1cc(Br)cc(Br)c1 (stereo partly drawn) [Example 35]
0.74 nM	581 nM	O=C(O)CC(NC(=O)CNC(=O)c1cncc(NC2=NCCN2)c1)c1cc(Cl)cc(Br)c1O (stereo not drawn) [Example 4]
0.43 nM	798 nM	Cn1cc(C(=O)NCC(=O)NC(CC(=O)O)c2cc(Cl)cc(Cl)c2O)cc(NC2=NCCN2)c1=O (stereo not drawn) [Example 18, N-[[5-(4,5,-dihydro-1H-imidazol-2-yl)amino]-1,6-dihydro-1-methyl-6-oxo-3-pyridinyl]carbonyl]glycyl-3-(3,5-dichloro-2-hydroxyphenyl-β-alanine, (trifluoroacetate) salt]
0.71 nM	831 nM	O=C(O)C[C@H](NC(=O)CNC(=O)c1cncc(NC2=NCC(O)CN2)c1)c1cc(Br)cc(I)c1O (stereo partly drawn) [Example 26]
0.46 nM	724 nM	COc1ncc(C(=O)NCC(=O)NC(CC(=O)O)c2cc(Cl)cc(Cl)c2O)cc1NC1=NCCN1 (stereo not drawn) [Example 17, N-[[5-(4,5,-dihydro-1H-imidazol-2-yl)amino]-6-methoxy-3-pyridinyl]carbonyl]glycyl]-3-(3,5-dichloro-2-hydroxyphenyl)-β-alanine, bis(trifluoroacetate) salt]
0.2 nM	551 nM	O=C(O)C[C@H](NC(=O)CNC(=O)c1c[nH]c(=O)c(NC2=NCC(O)CN2)c1)c1cc(Cl)cc(Cl)c1O (stereo partly drawn) [Example 21, (3S)-N-[[1,6-dihydro-6-oxo-5-[(1,4,5,6-tetrahydro-5-hydroxy-2-pyrimidinyl)amino]-3-pyridinyl]carbonyl]glycyl-3-(3,5-dichloro-2-hydroxyphenyl)-β-alanine, trifluoroacetate salt]
0.21 nM	361 nM	O=C(O)C[C@H](NC(=O)CNC(=O)c1cncc(NC2=NCC(O)CN2)c1)c1cc(Br)cc(Cl)c1O (stereo partly drawn) [Example 7]
0.42 nM	884 nM	O=C(O)CC(NC(=O)CNC(=O)c1cncc(NC2=NCCN2)c1)c1cc(Cl)cc(I)c1O (stereo not drawn) [Example 5]
0.14 nM	161 nM	O=C(O)C[C@H](NC(=O)CNC(=O)c1cncc(N=C2NCC(O)CN2)c1)c1cc(Cl)cc(Cl)c1O (stereo partly drawn) [Example 10]
